Tested on: recurrent glioblastoma (WHO grade IV)
Conditions: human, in vivo

Structure (SMILES): O=NN(CCCl)C(=O)NC1CCCCC1 [lomustine]
- clinical and imaging response after one cycle: significant clinical and imaging response
- imaging and clinical response after first six weeks of therapy (one cycle), both of two patients: significant imaging and clinical improvement
- response on brain scans after chemotherapy was added to Avastin: Response
- time disease free (complete tumor disappearance) post PVSRIPO infusion: > 32 months

Source: US10744171B2, “Sequential anti-cancer treatment” (Duke University, priority 2016, dated 2020)
